Results on 10 compounds are retold here after BindingDB's records for PubMed 30282319 (Polytechnic Institute of Braganca, 2018).

Converted amounts (≈) assume the structure as drawn.

The target of the assay is alpha-glucosidase (Saccharomyces cerevisiae). Kind of assay: Inhibition of Saccharomyces cerevisiae alpha-glucosidase assessed as release of p-nitrophenol using pNPG as substrate preincubated for 15 mins followed by substrate addition and measured after 15 mins by plate reader analysis.
On to `COc1c(O)cc2oc3ccc(O)cc3c(=O)c2c1O`, for which the IC50 worked out at 7.6 µg/mL (≈ 27.7 µM). Take `COc1cc(OC)c2c(=O)c3c(O)c(OC)ccc3oc2c1O`: the half-maximal inhibitory concentration (IC50) came out at 59 µg/mL (≈ 185 µM).

On to `COc1c(O)cc(O)c2c(=O)c3cc(O)ccc3oc12`, for which the half-inhibitory concentration (IC50) turned out to be 13 µg/mL (≈ 47.4 µM). Take `COc1cc(O)c2c(=O)c3cc(O)ccc3oc2c1OC`: the half-maximal inhibitory concentration (IC50) is 13 µg/mL (≈ 45.1 µM). As for `COc1c(O)cc2oc3ccc(O)c(OC)c3c(=O)c2c1O`, the half-inhibitory concentration (IC50) came out at 63 µg/mL (≈ 207 µM).

Take `COc1ccc2oc3ccc(O)cc3c(=O)c2c1`: the concentration for half-maximal inhibition (IC50) was 77 µg/mL (≈ 318 µM). As for `COc1ccc2oc3ccc(O)cc3c(=O)c2c1OC`, the IC50 was determined as 49 µg/mL (≈ 180 µM). In the case of `O=c1c2cc(O)ccc2oc2cc(O)cc(O)c12` [1,3,7-trihydroxy-9H-xanthen-9-one] it was 3.2 µg/mL (≈ 13.1 µM); in that of `O=c1c2cc(O)ccc2oc2cccc(O)c12` [CHEBI:4946], 36 µg/mL (≈ 158 µM); in that of `COc1ccc(O)c2c(=O)c3cc(O)ccc3oc12` [CHEBI:67553], 28 µg/mL (≈ 108 µM).

For orientation: IC50 means the midpoint of a concentration-inhibition curve.
